Where “and” joins values, the source holds several entries; their conditions need not be identical. Equal entries are not always repeated.
Assays:
[1] = cited from earlier work
1,5-AG = assay: Level of 1,5-AG in subjects having GSD Ib after Jardiance treatment; format: in vivo, human; settings: reference range in normal adults 10.7-32.0, in µg/mL (unit assumed)
Experimental: The level of 1,5-AG was determined in 6 subjects having GSD Ib. Here, the reference range of 1,5-AG in normal, non-GSD Ib adults is 10.7-32.0.

Structure (SMILES) | half-life in blood ([1]; blood) | excreted amount in urine reabsorbed by the kidneys ([1]; reabsorption at sodium glucose active cotransporter (SGLT4)) | Level of 1,5-AG After Jardiance Treatment (1,5-AG; first value after treatment) | Level of 1,5-AG After Jardiance Treatment (1,5-AG; later value ('then'))
OC[C@H]1OC[C@H](O)[C@@H](O)[C@@H]1O [1,5-AG, 1,5-anhydroglucitol] | 1-2 weeks | About 99.9% | – | –
OC[C@H]1O[C@@H](c2ccc(Cl)c(Cc3ccc(O[C@H]4CCOC4)cc3)c2)[C@H](O)[C@@H](O)[C@@H]1O [Jardiance] | – | – | 20.7 and 33.1 | 7.8

Source: patent US20230366887A1, “METHODS OF DETECTING AND USING BIOMARKERS FOR GLYCOGEN STORAGE DISEASES” (Duke University, priority 2020, published 2023)
